Assay results published in ChEMBL document CHEMBL4190171, “Chemical probes and inhibitors of bromodomains outside the BET family” (Medchemcomm, 2016).

Tests used:
[1] = molecular target: T1, Histone acetyltransferase KAT2B (Homo sapiens, UniProt Q92831)
[2] = test system: Human immunodeficiency virus 1; test: Antiviral activity against HIV1 3B infected in human C8166 cells assessed as reduction in virus-induced cytopathic effect by measuring syncytium formation after 3 days by inverted microscopic analysis; format: functional, organism-based; conditions: Human immunodeficiency virus 1, 3B, C8166, 72 h
[3] = molecular target: T1, Histone acetyltransferase KAT2B; remark: listed apart in the source
Description: Displacement of biotinylated small molecule ligand from His/FLAG-tagged PCAF bromodomain (719 to 832 residues) (unknown origin) after 15 mins by AlphaLisa method

CREB-binding protein [4] = molecular target: T2, CREB-binding protein (Homo sapiens, UniProt Q92793); test: Inhibition of CBP bromodomain (unknown origin) using H3K56Ac peptide as substrate by Alphascreen assay
[5] = molecular target: T3, ATPase family AAA domain-containing protein 2B (Homo sapiens, UniProt Q9ULI0); test: Binding affinity to partial length human ATAD2B (Q955 to R1082) expressed in bacterial expression system by Bromoscan method
T3 sequence (Q9ULI0 whole entry): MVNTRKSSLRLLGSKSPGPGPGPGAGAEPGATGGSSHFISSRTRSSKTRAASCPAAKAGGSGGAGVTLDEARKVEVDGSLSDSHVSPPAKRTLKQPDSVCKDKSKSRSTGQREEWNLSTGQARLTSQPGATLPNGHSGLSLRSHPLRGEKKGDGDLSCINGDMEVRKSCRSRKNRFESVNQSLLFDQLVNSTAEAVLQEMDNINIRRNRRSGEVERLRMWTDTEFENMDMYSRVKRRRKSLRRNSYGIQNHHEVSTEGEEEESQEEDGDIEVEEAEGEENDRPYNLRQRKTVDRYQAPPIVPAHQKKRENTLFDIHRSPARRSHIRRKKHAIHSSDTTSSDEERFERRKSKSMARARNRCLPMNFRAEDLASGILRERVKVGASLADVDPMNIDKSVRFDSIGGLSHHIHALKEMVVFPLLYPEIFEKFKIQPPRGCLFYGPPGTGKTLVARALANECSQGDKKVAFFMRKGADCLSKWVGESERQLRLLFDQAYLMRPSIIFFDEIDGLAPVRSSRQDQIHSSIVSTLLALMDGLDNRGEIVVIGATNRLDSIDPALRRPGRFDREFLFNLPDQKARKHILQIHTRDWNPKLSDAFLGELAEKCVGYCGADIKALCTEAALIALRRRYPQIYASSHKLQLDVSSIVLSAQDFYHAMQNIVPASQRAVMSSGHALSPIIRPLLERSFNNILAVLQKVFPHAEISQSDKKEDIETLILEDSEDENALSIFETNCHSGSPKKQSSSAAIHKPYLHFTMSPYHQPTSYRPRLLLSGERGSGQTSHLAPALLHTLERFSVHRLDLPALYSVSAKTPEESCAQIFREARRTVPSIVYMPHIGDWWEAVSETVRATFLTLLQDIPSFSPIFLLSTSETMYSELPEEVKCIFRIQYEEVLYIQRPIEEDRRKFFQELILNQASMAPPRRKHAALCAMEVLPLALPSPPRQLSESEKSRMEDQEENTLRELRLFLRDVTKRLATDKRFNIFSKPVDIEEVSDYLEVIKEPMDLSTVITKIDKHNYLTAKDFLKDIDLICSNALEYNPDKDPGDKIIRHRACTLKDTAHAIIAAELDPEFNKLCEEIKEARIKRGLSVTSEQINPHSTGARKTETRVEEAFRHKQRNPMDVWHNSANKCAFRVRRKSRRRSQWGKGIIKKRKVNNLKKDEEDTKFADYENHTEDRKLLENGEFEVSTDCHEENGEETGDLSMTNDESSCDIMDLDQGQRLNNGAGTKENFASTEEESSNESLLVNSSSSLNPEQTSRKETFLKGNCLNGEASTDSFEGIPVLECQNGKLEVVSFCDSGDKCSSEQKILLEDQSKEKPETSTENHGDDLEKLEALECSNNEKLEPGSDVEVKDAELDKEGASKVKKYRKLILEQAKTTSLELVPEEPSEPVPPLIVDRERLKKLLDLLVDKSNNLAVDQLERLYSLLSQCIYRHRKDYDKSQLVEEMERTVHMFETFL

[6] = molecular target: T4, Bromodomain-containing protein 4 (Homo sapiens, UniProt O60885); test: Binding affinity to recombinant BRD4 bromodomain1 (unknown origin) by isothermal titration calorimetry
[7] = molecular target: T5, Histone acetyltransferase p300 (Homo sapiens, UniProt Q09472); test: Binding affinity to EP300 (unknown origin) by isothermal titration calorimetry
CREB-binding protein [8] = molecular target: T2, CREB-binding protein; test: Binding affinity to C-terminally biotinylated N-terminal His10-tagged human CBP bromodomain (R1081 to G1198 residues) expressed in Escherichia coli BL21(DE3) by isothermal titration calorimetry
[9] = molecular target: T4, Bromodomain-containing protein 4; test: Binding affinity to human BRD4 bromodomain1 by isothermal titration calorimetry
[10] = molecular target: T4, Bromodomain-containing protein 4; test: Displacement of Halo-tagged histone H3.3 from Nluc-BRD4 (unknown origin) expressed in HEK293 cells using furimazine as substrate pretreated for 18 hrs followed by substrate addition measured within 5 mins by NanoBRET assay; format: cell-based
THP-1 = test: Inhibition of LPS-stimulated IL-6 secretion in human THP1 cells by ELISA; format: functional, cell-based
CREB-binding protein [11] = molecular target: T2, CREB-binding protein; test: Binding affinity to CBP bromodomain (unknown origin) by tryptophan fluorescence assay
CREB-binding protein [12] = molecular target: T2, CREB-binding protein; test: Binding affinity to recombinant human His-tagged CBP bromodomain expressed in bacterial expression system by isothermal titration calorimetry
[13] = molecular target: T5, Histone acetyltransferase p300; test: Binding affinity to recombinant human His-tagged EP300 expressed in bacterial expression system by isothermal titration calorimetry
[14] = molecular target: Cellular tumor antigen p53 (Homo sapiens, UniProt P04637); test: Inhibition of p53-induced (unknown origin) expressed in human RKO cells assessed as reduction in p53-induced p21 activation measured after 24 hrs by luciferase reporter gene assay; format: cell-based

T2 sequence (Q92793 whole entry, the tested form may be a part): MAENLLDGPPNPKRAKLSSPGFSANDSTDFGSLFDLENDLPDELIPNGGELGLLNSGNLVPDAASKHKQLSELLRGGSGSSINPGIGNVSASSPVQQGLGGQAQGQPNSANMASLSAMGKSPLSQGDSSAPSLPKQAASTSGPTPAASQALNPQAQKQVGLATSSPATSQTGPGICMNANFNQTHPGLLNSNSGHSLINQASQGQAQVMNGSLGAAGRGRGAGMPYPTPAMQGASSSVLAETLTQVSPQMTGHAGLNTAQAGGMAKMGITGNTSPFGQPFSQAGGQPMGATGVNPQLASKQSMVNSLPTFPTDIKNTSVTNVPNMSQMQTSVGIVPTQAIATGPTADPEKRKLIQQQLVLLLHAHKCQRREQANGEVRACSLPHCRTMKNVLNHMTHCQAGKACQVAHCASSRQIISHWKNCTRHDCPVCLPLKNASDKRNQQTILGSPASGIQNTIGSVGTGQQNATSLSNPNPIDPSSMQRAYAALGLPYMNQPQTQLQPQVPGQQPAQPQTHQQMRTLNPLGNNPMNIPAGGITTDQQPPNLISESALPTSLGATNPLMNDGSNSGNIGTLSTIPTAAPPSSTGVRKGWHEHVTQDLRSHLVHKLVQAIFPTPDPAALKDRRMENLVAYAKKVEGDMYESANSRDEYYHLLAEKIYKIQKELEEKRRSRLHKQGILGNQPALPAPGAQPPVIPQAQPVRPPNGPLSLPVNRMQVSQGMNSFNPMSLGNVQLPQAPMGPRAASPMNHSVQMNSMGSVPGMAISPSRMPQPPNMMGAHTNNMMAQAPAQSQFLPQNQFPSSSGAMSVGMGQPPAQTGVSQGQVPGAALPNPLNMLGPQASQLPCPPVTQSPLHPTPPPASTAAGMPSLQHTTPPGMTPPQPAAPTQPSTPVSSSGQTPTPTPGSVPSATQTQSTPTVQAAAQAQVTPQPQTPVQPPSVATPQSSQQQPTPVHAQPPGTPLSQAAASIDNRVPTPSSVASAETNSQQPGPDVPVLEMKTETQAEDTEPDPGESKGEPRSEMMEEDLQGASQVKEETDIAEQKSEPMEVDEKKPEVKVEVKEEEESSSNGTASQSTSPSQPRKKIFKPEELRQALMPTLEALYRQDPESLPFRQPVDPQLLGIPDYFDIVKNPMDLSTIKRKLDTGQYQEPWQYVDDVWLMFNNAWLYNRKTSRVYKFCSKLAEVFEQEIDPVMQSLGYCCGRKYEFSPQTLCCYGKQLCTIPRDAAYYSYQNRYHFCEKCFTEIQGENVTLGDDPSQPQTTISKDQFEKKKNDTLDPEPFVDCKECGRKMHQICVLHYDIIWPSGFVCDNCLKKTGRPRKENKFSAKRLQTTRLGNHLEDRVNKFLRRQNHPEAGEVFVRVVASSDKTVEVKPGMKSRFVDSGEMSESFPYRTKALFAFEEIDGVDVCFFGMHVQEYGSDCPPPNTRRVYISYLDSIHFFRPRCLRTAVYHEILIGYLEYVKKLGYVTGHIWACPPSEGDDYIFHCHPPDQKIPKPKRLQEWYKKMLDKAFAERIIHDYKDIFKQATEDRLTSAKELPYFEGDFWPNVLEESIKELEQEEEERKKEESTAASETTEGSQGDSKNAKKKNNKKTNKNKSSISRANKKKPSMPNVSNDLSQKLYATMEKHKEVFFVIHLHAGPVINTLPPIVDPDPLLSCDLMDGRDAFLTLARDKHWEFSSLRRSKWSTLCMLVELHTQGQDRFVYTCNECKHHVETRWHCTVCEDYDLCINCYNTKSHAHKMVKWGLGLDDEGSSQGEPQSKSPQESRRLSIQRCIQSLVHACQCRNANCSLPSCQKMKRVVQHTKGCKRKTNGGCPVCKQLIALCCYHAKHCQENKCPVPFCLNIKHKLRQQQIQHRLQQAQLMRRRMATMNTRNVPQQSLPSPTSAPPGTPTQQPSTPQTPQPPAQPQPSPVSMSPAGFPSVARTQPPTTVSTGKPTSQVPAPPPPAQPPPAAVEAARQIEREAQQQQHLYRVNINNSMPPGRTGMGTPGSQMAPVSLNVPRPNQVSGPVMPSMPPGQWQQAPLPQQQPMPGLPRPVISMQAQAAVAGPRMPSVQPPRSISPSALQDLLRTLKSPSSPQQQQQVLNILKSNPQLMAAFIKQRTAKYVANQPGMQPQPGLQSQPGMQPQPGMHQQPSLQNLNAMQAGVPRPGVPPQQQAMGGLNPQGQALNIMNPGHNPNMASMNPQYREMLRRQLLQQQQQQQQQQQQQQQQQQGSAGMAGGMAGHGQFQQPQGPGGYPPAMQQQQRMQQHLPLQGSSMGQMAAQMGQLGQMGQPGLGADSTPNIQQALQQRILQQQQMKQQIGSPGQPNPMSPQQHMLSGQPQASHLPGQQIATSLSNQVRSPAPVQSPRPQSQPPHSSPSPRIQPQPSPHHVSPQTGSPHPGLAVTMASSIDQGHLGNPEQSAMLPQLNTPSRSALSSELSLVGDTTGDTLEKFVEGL
T5 sequence (Q09472 whole entry, the tested form may be a part): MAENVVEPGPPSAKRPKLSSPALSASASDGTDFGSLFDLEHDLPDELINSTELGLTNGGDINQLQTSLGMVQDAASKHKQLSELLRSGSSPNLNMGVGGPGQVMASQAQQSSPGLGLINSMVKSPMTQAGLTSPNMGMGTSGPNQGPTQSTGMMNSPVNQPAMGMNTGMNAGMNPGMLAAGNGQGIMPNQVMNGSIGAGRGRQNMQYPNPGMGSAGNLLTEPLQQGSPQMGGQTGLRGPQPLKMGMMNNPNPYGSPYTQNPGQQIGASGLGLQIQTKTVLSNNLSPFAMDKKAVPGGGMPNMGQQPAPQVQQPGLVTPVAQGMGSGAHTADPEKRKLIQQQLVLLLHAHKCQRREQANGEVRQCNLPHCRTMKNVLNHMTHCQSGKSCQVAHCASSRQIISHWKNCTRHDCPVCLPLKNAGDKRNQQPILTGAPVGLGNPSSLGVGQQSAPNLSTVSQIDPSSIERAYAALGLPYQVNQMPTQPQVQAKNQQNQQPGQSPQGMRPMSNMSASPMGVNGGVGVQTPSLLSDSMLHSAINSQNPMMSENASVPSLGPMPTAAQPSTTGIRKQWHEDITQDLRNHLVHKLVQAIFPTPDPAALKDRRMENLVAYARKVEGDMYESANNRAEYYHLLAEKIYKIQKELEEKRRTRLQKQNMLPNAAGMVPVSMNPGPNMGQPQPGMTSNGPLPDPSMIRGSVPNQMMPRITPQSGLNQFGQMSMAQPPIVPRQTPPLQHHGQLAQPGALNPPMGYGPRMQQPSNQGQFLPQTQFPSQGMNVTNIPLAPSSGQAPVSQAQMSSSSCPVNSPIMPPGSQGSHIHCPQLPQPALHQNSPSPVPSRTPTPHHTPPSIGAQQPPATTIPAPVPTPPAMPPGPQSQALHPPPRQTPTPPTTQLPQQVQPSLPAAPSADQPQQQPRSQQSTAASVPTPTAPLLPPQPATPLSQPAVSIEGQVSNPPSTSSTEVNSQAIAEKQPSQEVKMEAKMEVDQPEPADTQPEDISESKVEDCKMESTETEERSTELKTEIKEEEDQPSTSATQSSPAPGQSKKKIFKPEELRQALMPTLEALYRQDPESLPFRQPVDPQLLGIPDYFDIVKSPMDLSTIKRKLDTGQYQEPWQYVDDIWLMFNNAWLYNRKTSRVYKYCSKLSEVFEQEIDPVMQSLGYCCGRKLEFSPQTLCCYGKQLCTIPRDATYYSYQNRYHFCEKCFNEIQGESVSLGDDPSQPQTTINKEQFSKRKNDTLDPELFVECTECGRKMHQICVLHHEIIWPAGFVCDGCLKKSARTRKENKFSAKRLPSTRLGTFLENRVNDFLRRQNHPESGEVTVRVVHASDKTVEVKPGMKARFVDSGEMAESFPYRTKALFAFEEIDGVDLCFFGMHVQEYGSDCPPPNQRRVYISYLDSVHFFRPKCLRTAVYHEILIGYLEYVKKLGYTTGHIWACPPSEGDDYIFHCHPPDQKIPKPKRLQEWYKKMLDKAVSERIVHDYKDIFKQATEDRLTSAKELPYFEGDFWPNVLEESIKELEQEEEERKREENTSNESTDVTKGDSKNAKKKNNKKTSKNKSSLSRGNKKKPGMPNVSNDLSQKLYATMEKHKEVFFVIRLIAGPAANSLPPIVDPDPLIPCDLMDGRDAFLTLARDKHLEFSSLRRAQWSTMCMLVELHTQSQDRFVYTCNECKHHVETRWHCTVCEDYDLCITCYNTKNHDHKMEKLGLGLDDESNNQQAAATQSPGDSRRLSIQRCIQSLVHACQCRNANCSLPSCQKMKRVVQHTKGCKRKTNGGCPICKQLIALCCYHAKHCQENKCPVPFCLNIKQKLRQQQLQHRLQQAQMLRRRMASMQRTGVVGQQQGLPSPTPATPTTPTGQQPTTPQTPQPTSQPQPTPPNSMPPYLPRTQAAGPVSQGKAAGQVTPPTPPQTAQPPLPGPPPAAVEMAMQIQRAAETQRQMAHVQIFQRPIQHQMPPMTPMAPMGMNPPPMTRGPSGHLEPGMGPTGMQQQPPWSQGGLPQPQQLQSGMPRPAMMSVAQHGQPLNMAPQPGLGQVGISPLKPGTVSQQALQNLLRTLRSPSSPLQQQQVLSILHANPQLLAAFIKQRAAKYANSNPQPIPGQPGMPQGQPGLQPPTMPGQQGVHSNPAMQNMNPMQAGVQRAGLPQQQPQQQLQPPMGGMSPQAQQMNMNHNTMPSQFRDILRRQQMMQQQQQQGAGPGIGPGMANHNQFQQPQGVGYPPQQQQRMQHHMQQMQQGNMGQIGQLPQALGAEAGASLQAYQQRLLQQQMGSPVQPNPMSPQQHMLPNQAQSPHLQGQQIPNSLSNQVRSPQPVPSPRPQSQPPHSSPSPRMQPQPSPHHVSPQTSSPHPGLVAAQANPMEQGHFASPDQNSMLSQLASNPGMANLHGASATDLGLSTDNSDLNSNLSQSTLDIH

Compound: NCCCNCc1ccc(NCCCN)[n+]([O-])c1
- IC50 [1]: 0.93 µM
- EC50 [2]: 11.5 µM

Compound: C[C@H](Nc1nn(C)c(=O)n(C)c1=O)[C@H](c1ccc(S(=O)(=O)c2ccccc2)cc1)N(C)C
- IC50 [3]: 0.07 µM

Compound: CC1Nc2ccccc2NC1=O (stereo not given)
- IC50 (CREB-binding protein [4]): 1900 µM

Compound: CO[C@H]1CNC[C@@H](OCC2CCC(F)(F)CC2)[C@@H]1Nc1ncc(-c2cncc(C)c2)c2cc(C)c(=O)[nH]c12
- Kd [5]: 0.001 µM

Compound: CCCOc1ccc(CCc2nc3cc(-c4c(C)noc4C)ccc3n2CCN2CCOCC2)cc1
- Kd [6]: 20 µM

Compound: CCC(=O)N1CCOc2c(cc(-c3ccc(OC)c(OC)c3)cc2OC[C@H]2CCCN(C)C2)C1
- Kd [7]: 0.167 to 0.343 µM
- Kd (CREB-binding protein [8]): 0.151 to 0.208 µM
- Kd [9]: 5.59 µM
- IC50 [10]: 0.6 µM

Compound: Cc1cc(=O)n(C)c2cc(N3C(=O)CC[C@H](NS(=O)(=O)CC(C)C)[C@H]3c3ccc(Cl)cc3)ccc12
- IC50 (THP-1): < 10 µM

Compound: CC(=O)NCCCC[C@@H]1NC(=O)[C@H](Cc2c[nH]c3ccccc23)NC(=O)[C@@H](NC(C)=O)CSSCC(C(=O)N[C@@H](Cc2ccccc2)C(=O)N[C@@H](CCCCN)C(N)=O)NC(=O)[C@H](CC(C)C)NC(=O)[C@H](CCCCN)NC1=O (single isomer, unassigned)
- Kd (CREB-binding protein [11]): 8 µM

Compound: Cc1noc(C)c1-c1ccc2c(c1)nc(CCc1ccccc1)n2CCN1CCOCC1
- Kd (CREB-binding protein [12]): 0.32 µM
- Kd [13]: 0.35 µM

Compound: COc1ccc(CCc2nc3cc(-c4c(C)noc4C)ccc3n2C[C@H](C)N2CCOCC2)cc1Cl
- IC50 [14]: 1.54 µM
